Active and inactive are the calls of the source.
What was measured:
[1] = microbe, parasite or virus in culture; assay type: functional; conditions: Mycobacterium tuberculosis
Cytochrome P450 2C9 = Cytochrome P450 2C9 (Homo sapiens, UniProt P11712)
Cytochrome P450 2D6 = Cytochrome P450 2D6 (Homo sapiens, UniProt P10635);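 note: CYP2D6 member of a cytochrome P450 panel assay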
Caspase-3 = biological target: T1, Caspase-3 (Homo sapiens, UniProt P42574); assay type: functional;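 note: Dose-response selectivity test against caspase-3 for candidate inhibitors of sentrin-specific proteases (SENPs)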
T1 sequence (P42574 whole entry): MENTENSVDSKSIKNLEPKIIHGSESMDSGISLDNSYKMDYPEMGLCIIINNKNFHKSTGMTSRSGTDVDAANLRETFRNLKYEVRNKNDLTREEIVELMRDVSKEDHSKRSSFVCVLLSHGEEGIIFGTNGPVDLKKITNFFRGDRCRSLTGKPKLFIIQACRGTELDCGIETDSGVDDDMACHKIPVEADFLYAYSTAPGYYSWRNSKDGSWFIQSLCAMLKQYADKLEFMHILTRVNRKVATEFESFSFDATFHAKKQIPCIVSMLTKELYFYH

[2] = biological target: T2, Sentrin-specific protease 6 (Homo sapiens, UniProt Q9GZR1); assay type: functional;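 note: Luminescence-based dose-response confirmatory assay of SENP6 inhibition, following up an ultra-high-throughput screen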
T2 sequence (Q9GZR1 whole entry): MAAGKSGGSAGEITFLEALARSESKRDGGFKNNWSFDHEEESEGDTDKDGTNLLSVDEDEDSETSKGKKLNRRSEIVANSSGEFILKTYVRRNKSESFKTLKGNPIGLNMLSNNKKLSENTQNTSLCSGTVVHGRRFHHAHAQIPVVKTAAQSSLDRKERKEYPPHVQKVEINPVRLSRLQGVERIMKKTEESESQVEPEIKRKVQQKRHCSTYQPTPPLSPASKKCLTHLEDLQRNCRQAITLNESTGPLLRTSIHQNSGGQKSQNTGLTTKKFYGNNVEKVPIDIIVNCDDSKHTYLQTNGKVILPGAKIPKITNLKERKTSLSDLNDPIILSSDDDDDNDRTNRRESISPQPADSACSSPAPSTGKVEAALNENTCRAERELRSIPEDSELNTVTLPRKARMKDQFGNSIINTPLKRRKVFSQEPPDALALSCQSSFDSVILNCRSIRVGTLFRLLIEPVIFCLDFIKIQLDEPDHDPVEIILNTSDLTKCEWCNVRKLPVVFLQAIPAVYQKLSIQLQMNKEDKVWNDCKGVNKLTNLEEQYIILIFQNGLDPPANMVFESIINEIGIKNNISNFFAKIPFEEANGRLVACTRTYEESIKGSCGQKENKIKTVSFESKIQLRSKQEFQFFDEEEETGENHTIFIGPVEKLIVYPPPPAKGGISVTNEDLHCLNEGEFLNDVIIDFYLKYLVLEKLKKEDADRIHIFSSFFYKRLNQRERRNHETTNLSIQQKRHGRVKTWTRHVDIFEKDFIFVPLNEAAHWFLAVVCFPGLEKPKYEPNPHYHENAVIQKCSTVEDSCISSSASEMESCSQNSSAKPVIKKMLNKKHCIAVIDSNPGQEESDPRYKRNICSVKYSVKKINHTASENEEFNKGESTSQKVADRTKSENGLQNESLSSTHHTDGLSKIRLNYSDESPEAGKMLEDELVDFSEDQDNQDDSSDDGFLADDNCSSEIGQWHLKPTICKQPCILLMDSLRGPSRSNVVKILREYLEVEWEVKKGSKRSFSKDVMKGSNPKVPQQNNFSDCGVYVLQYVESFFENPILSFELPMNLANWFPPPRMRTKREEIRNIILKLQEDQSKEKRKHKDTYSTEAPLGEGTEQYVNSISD

[3] = biological target: T3, Sentrin-specific protease 8 (Homo sapiens, UniProt Q96LD8); assay type: functional;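 note: luminescence read-out of SENP8 inhibition, dose-response confirmation following an ultra-high-throughput screen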
T3 sequence (Q96LD8 whole entry): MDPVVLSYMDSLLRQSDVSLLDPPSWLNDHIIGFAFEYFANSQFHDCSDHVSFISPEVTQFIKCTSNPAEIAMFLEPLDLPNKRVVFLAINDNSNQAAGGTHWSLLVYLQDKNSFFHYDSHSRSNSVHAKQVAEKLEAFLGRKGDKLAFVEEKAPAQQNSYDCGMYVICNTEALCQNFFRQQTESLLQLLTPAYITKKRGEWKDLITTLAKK

[4] = biological target: T4, Sentrin-specific protease 7 (Homo sapiens, UniProt Q9BQF6); assay type: functional;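 note: Luminescence-based dose-response confirmation of ultra-high-throughput screening hits, measuring inhibition of SENP7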
T4 sequence (Q9BQF6 whole entry): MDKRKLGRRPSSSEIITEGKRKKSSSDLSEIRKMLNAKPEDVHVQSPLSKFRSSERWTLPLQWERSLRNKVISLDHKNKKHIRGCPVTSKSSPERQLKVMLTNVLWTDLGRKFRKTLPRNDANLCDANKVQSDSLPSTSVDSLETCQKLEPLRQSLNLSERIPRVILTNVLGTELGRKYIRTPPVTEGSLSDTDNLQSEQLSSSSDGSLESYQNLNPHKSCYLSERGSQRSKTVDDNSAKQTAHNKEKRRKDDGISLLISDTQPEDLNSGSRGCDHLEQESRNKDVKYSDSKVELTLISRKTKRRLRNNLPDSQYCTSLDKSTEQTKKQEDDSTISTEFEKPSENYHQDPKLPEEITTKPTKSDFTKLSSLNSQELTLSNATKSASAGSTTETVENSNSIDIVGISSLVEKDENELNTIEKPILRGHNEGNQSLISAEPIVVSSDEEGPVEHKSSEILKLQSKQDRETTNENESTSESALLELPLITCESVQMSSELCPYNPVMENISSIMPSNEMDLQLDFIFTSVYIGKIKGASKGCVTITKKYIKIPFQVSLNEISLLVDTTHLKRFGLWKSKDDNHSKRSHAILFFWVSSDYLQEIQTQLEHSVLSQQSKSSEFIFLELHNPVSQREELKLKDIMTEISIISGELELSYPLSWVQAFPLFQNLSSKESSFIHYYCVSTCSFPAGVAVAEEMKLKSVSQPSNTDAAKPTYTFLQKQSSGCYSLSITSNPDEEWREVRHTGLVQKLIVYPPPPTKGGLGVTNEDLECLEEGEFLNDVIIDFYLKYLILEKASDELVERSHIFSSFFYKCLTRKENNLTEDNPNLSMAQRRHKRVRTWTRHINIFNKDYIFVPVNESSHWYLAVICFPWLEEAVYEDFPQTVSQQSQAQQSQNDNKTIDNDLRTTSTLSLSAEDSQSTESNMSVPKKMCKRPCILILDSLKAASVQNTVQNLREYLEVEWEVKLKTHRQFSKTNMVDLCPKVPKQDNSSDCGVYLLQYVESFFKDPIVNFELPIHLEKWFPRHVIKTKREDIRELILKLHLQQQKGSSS

Streptokinase A = biological target: T5, Streptokinase A (Streptococcus pyogenes serotype M1, UniProt P10520); assay: S. pyogenes streptokinase expression inhibitors, potency, dose response, plasminogen activation absorbance, OD405 (AID 1914); assay type: functional, Streptococcus pyogenes M1 GAS;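 note: secreted streptokinase activity via plasminogen activation per viability signal from cell pellet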
T5 sequence (P10520 whole entry): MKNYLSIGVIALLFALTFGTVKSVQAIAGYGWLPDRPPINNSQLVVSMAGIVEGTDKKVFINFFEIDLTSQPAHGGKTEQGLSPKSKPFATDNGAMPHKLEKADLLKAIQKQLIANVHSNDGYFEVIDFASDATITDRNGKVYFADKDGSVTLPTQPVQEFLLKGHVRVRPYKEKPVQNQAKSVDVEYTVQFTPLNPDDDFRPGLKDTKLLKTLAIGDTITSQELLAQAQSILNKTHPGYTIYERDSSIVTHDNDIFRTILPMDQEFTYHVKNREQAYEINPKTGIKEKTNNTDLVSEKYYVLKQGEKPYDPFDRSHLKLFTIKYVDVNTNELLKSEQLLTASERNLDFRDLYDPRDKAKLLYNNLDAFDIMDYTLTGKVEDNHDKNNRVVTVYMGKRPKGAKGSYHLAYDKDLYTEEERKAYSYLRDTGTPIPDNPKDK

[5] = test system: Streptococcus sp. 'group A'; assay: growth inhibition of control SK(-) GAS strain, dose response, counter-screen for streptokinase expression inhibitor project, luminescence, kanamycin, BacTiterGlo, confirmation (AID 1900); assay type: functional, organism-based
Streptococcus = assay: Group A Streptococcus viability loss, dose response, counter-screen for streptokinase expression inhibitor project, luminescence, BacTiterGlo (AID 1915); assay type: functional, organism-based;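 note: potency for reduction of bacterial viability or growth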
[6] = biological target: T6, Heat shock factor protein 1 (Mus musculus, UniProt P38532); assay: HSF1 potentiators in luciferase reporter cells, confirmation, cell-based, NIH3T3, luminescence, dose retest (AID 435004); assay type: functional;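 note: stress induced by proteasome inhibitor MG132 added 30 min after compound; luciferase reporter driven by HSF1 response element in NIH3T3 cells; actives raise luminescence as potentiators of the MG132 stress response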
T6 sequence (P38532 whole entry): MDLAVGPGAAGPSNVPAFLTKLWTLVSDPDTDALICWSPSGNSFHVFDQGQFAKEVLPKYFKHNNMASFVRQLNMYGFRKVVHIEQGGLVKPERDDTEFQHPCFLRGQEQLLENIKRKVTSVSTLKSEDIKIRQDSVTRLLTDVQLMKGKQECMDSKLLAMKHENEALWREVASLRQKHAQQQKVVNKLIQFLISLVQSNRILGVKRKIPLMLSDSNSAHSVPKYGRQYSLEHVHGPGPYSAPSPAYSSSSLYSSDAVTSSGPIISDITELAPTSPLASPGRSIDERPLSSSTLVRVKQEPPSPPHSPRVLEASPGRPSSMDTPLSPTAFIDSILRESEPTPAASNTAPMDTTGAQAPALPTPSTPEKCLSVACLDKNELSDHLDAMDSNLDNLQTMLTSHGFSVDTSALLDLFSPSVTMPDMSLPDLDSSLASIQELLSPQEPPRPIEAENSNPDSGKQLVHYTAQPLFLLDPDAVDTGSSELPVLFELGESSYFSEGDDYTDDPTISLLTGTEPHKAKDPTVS

INS1 = assay: beta cell apoptosis inhibitors, cytokine rescue, dose response, luminescence, retest (AID 449756); assay type: functional, cell-based; conditions: Rattus norvegicus;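 note: cell death triggered by IL-1 beta plus TNF-alpha plus IFN-gamma mixture; protective hits raise ATP signal compared with cytokine alone wells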
[7] = Luminescence Cell-Based Dose Retest to Confirm Inhibitors of Cancer Stem Cells. [Related pubchem assays (depositor defined):AID2717, AID2721]; assay type: functional; conditions: Homo sapiens

Sequence of Cytochrome P450 2D6 (P10635 whole entry): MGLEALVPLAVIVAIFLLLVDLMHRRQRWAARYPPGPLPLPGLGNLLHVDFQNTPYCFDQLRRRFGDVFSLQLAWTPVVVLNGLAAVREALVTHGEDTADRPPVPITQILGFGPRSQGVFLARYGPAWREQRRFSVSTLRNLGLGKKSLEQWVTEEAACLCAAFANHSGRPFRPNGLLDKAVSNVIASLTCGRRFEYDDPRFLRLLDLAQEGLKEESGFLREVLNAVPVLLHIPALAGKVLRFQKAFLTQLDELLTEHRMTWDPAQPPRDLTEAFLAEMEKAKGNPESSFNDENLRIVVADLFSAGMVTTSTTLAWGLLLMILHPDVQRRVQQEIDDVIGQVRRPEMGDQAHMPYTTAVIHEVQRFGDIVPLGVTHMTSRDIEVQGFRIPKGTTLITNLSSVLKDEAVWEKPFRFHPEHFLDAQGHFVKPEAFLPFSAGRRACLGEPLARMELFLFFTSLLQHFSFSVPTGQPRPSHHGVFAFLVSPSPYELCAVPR
Sequence of Cytochrome P450 2C9 (P11712 whole entry): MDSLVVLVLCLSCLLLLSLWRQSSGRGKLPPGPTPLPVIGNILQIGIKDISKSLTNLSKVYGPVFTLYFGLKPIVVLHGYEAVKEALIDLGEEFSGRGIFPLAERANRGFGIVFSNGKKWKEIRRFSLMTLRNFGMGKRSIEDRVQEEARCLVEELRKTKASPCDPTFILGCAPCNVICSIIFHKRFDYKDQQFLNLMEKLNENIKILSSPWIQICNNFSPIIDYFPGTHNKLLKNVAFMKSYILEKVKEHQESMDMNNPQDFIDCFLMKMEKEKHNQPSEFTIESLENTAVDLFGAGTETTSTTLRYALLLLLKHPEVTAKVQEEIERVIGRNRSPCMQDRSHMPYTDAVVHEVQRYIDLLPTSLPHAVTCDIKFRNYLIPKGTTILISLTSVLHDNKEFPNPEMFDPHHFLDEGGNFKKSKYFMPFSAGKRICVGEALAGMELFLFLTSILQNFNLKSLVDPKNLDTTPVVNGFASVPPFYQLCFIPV

Row | Compound | AC50 (Cytochrome P450 2D6) | IC50 (Caspase-3) | IC50 [2] | IC50 [3] | IC50 [4] | also measured
1 | O=S1(=O)N(CCN2CC=C(c3c[nH]c4cc(F)ccc34)CC2)c2cccc3c2N1CCC3 | – | – | – | – | – | CC50 [1]: > 40 µM (active); AC50 (Cytochrome P450 2C9): 25.1 µM (inconclusive)
2 | O=C(c1ccco1)N1CCC2(CC1)CN(Cc1ccncc1)C2 | 12.6 µM (inconclusive) | – | – | – | – | –
3 | O=C(CCN1C(=O)c2ccccc2C1=O)NC(=S)Nc1cccc(Cl)c1 | 0.0447 µM (inconclusive) | – | – | – | – | –
4 | COc1cccc([C@@H]2Oc3ccc(OC)cc3C(=O)[C@H]2O)c1 | 3.16 µM (inconclusive) | – | – | – | – | –
5 | CN(CC(=O)Nc1ccc(Cl)cc1)C(=O)CNC(=O)c1ccc2ccccc2c1 | – | 26.4 µM (active) | > 100 µM (inactive) | > 100 µM (inactive) | 11.1 µM (active) | –
6 | CCn1c(-c2ccccc2Cl)nn(CC(=O)Nc2cc(Cl)ccc2Cl)c1=S | 25.1 µM (inconclusive) | – | – | – | – | AC50 (Cytochrome P450 2C9): 25.1 µM (inconclusive)
7 | Clc1ccccc1-c1nccc(NCc2ccccc2)n1 | 39.8 µM (inconclusive) | – | – | – | – | –
8 | O=c1c2c3c(sc2nc(N2CCNCC2)n1-c1cccc(Cl)c1)CCCCC3 | – | – | – | – | – | CC50 [1]: 13.6 µM (active)
9 | O=C1c2cccc3c([N+](=O)[O-])ccc(c23)C(=O)N1O | – | – | – | – | – | EC50 (Streptokinase A): > 150 µM (not active); CC50 [1]: 17.8 µM (active); EC50 [5]: 0.999 µM (active); EC50 (Streptococcus): 15.8 µM (active); EC50 [6]: 244 µM (active)
10 | CCC(=O)Nc1ccc(N2CCN(CC)CC2)c(Cl)c1 | 0.0447 µM (inconclusive) | – | – | – | – | –
11 | Cc1nc2ccc(NC(=O)c3cc(Cl)ccn3)cc2s1 | – | 3.79 µM (active) | 12.9 µM (active) | 86.4 µM (active) | 3.62 µM (active) | –
12 | O=C(Nc1ccc(N2CCN(C(=O)c3ccco3)CC2)cc1)C(c1ccccc1)c1ccccc1 | – | – | – | – | – | CC50 [1]: > 40 µM (active)
13 | O=C(COC(=O)c1ccc([N+](=O)[O-])s1)NC(=O)NCc1ccccc1 | – | 13.7 µM (active) | 4.59 µM (active) | 4.28 µM (active) | 8.47 µM (active) | –
14 | Fc1ccccc1SCc1nnc(-c2ccccc2Br)o1 | – | 17.1 µM (active) | 12.1 µM (active) | 14.7 µM (active) | 6.47 µM (active) | –
15 | Clc1nc(-c2ccccn2)nc2scc(-c3ccccc3)c12 | – | 7.37 µM (active) | 6.7 µM (active) | 7.79 µM (active) | 3.74 µM (active) | –
16 | CN(C)c1ccc(-c2cncnc2NCc2cccnc2)cc1 | 12.6 µM (inconclusive) | – | – | – | – | AC50 (Cytochrome P450 2C9): 0.501 µM (inconclusive)
17 | Oc1ccc(/C=C/c2ccnc3ccccc23)cc1 | – | 34.5 µM (active) | > 100 µM (inactive) | > 100 µM (inactive) | 9.49 µM (active) | –
18 | CCCC[C@@H](CN[C@H](C)CNC)NCC1CCC(C(C)(C)C)CC1 (some centres undefined) | – | – | – | – | – | CC50 [1]: 12.7 µM (active); AC50 (INS1): 6.4 µM (active); AC50 [7]: 6.55 µM (active)
19 | COc1ccccc1N1CCN(/N=C/c2ccc([N+](=O)[O-])cc2)CC1 | – | 2.68 µM (active) | 3.64 µM (active) | > 100 µM (inactive) | 2.17 µM (active) | –

Source: ChEMBL document CHEMBL1201862, “PubChem BioAssay data set” (2004)
